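Five concentrations, 48 hours, 96-well plates. The concentration for 50% growth inhibition is given as GI50.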 Active and inactive are the calls of the source. Cut-off read from the data, not from the text of the source: active = GI50 up to about 1.1 µM and inactive = higher.
Tests used:
Test in all cases: inhibition of tumour cell growth, NCI panel, 48 h
MCF7 = test system: MCF7
PC-3 = test system: PC-3
786-0 = test system: 786-0
SW-620 = test system: SW-620
SNB-19 = test system: SNB-19
IGROV-1 = test system: IGROV-1
HCC 2998 = test system: HCC 2998
MDA-N = test system: MDA-N
RPMI-8226 = test system: RPMI-8226
EKVX = test system: EKVX
SN12C = test system: SN12C
LOX IMVI = test system: LOX IMVI
SK-OV-3 = test system: SK-OV-3
ACHN = test system: ACHN
CAKI-1 = test system: CAKI-1
BT-549 = test system: BT-549
Hs-578T = test system: Hs-578T
T47D = test system: T47D
M14 = test system: M14

| SMILES | GI50 (MCF7) | GI50 (PC-3) | GI50 (786-0) | GI50 (SW-620) | GI50 (SNB-19) | GI50 (IGROV-1) | GI50 (HCC 2998) | GI50 (MDA-N) | GI50 (RPMI-8226) | GI50 (EKVX) | GI50 (SN12C) | GI50 (LOX IMVI) | GI50 (SK-OV-3) | GI50 (ACHN) | GI50 (CAKI-1) | GI50 (BT-549) | GI50 (Hs-578T) | GI50 (T47D) | GI50 (M14) |
| --- | --- | --- | --- | --- | --- | --- | --- | --- | --- | --- | --- | --- | --- | --- | --- | --- | --- | --- | --- |
| CC1(C)OC2OC(COC(=O)C=[N+]=[N-])C3OC(C)(C)OC3C2O1 (stereo not drawn) | > 100 µM (inactive) | > 100 µM (inactive) | > 100 µM (inactive) | > 100 µM (inactive) | > 100 µM (inactive) | > 100 µM (inactive) | > 100 µM (inactive) | > 100 µM (inactive) | > 100 µM (inactive) | > 100 µM (inactive) | > 100 µM (inactive) | > 100 µM (inactive) | > 100 µM (inactive) | > 100 µM (inactive) | > 100 µM (inactive) | > 100 µM (inactive) | – | – | – |
| COc1ccc2[nH]c3c(C)c4cc[n+](C)cc4c(C)c3c2c1 | 2.16 µM (inactive) | 4.55 µM (inactive) | – | 0.587 µM (active) | 0.16 µM (active) | 1.96 µM (inactive) | 1.92 µM (inactive) | – | – | 0.738 µM (active) | 0.0834 µM (active) | 6.21 µM (inactive) | 7.74 µM (inactive) | 7.24 µM (inactive) | – | 1.57 µM (inactive) | 0.125 µM (active) | – | – |
| Cc1c2c(n(CCc3ccc(Cl)cc3)c1C)NN=C(C#N)S2(=O)=O | > 100 µM (inactive) | > 100 µM (inactive) | > 100 µM (inactive) | > 100 µM (inactive) | > 100 µM (inactive) | > 100 µM (inactive) | > 100 µM (inactive) | 64.7 µM (inactive) | > 100 µM (inactive) | > 100 µM (inactive) | > 100 µM (inactive) | > 100 µM (inactive) | > 100 µM (inactive) | > 100 µM (inactive) | – | – | > 100 µM (inactive) | > 100 µM (inactive) | 91.4 µM (inactive) |
| Nc1ncnc2c1ncn2C1CCC(CO)O1 (stereo not drawn) | > 100 µM (inactive) | – | – | > 100 µM (inactive) | > 100 µM (inactive) | > 100 µM (inactive) | > 77.4 µM (inactive) | – | > 100 µM (inactive) | > 87.3 µM (inactive) | > 100 µM (inactive) | > 100 µM (inactive) | > 77.6 µM (inactive) | – | > 100 µM (inactive) | – | – | – | – |
| O=Nc1c(-c2c(O)[nH]c3ccc(I)cc23)[nH]c2ccccc12 | 2.41 µM (inactive) | 3.37 µM (inactive) | – | – | > 29.7 µM (inactive) | 2.13 µM (inactive) | 2.31 µM (inactive) | 4.97 µM (inactive) | 1.88 µM (inactive) | 2.96 µM (inactive) | 3.72 µM (inactive) | 2.45 µM (inactive) | 2.42 µM (inactive) | 2.53 µM (inactive) | 2.45 µM (inactive) | 18 µM (inactive) | – | – | > 21.6 µM (inactive) |
| COc1cc(C(=O)Nc2cc(C(N)=O)cc(OC)c2OC)cc(NC(=O)/C=C/c2ccccc2)c1OC | > 100 µM (inactive) | > 100 µM (inactive) | – | > 100 µM (inactive) | > 100 µM (inactive) | > 100 µM (inactive) | – | > 100 µM (inactive) | 44 µM (inactive) | > 100 µM (inactive) | 18.6 µM (inactive) | – | > 100 µM (inactive) | > 100 µM (inactive) | – | > 100 µM (inactive) | – | – | – |
| Cc1cc(NS(=O)(=O)c2ccc(/N=[N+](\[O-])c3ccc(S(=O)(=O)Nc4cc(C)on4)cc3)cc2)no1 | > 100 µM (inactive) | > 100 µM (inactive) | > 100 µM (inactive) | – | > 100 µM (inactive) | > 100 µM (inactive) | – | – | > 100 µM (inactive) | > 100 µM (inactive) | > 100 µM (inactive) | > 100 µM (inactive) | > 100 µM (inactive) | > 100 µM (inactive) | > 100 µM (inactive) | > 100 µM (inactive) | > 100 µM (inactive) | > 100 µM (inactive) | > 100 µM (inactive) |
| CCOC(=O)C(COS(C)(=O)=O)(COS(C)(=O)=O)C(=O)OCC | > 100 µM (inactive) | > 100 µM (inactive) | – | > 100 µM (inactive) | > 100 µM (inactive) | – | > 100 µM (inactive) | > 100 µM (inactive) | – | – | > 100 µM (inactive) | > 100 µM (inactive) | > 100 µM (inactive) | > 100 µM (inactive) | – | – | > 100 µM (inactive) | > 100 µM (inactive) | > 100 µM (inactive) |
| N/N=C(\N)SCc1ccc(N=C=S)cc1 | – | > 100 µM (inactive) | > 100 µM (inactive) | > 100 µM (inactive) | > 100 µM (inactive) | > 100 µM (inactive) | > 100 µM (inactive) | > 100 µM (inactive) | > 100 µM (inactive) | > 100 µM (inactive) | > 100 µM (inactive) | > 100 µM (inactive) | > 100 µM (inactive) | > 100 µM (inactive) | > 100 µM (inactive) | – | > 100 µM (inactive) | > 100 µM (inactive) | – |
| Cc1cc(-c2ccc(C(=O)C(Cl)(Cl)Cl)[nH]2)on1 | – | 29.9 µM (inactive) | 37 µM (inactive) | 50.6 µM (inactive) | 40.8 µM (inactive) | – | – | 34.2 µM (inactive) | 8.51 µM (inactive) | 35.1 µM (inactive) | 16.4 µM (inactive) | 24.9 µM (inactive) | 60 µM (inactive) | 27.9 µM (inactive) | 18.1 µM (inactive) | 33.3 µM (inactive) | – | 52.2 µM (inactive) | 35.5 µM (inactive) |
| CNC(=O)CCNC(=O)CCC(=O)N(C)C | > 100 µM (inactive) | > 100 µM (inactive) | > 100 µM (inactive) | > 100 µM (inactive) | > 100 µM (inactive) | – | > 100 µM (inactive) | > 100 µM (inactive) | > 100 µM (inactive) | – | > 100 µM (inactive) | – | > 100 µM (inactive) | > 100 µM (inactive) | > 100 µM (inactive) | – | – | > 100 µM (inactive) | > 100 µM (inactive) |
| CSc1ccc2c(cc1=O)[C@@H](NC(C)=O)CCc1cc(O)c(O)c(O)c1-2 | 4.81 µM (inactive) | 84.3 µM (inactive) | 13.8 µM (inactive) | 28.1 µM (inactive) | 29 µM (inactive) | 15.2 µM (inactive) | 23 µM (inactive) | 11.3 µM (inactive) | 12.9 µM (inactive) | 31.9 µM (inactive) | 20.2 µM (inactive) | 23 µM (inactive) | > 100 µM (inactive) | 22.3 µM (inactive) | 48.4 µM (inactive) | 29.6 µM (inactive) | – | 60.4 µM (inactive) | 18.7 µM (inactive) |
| COC(=O)c1ccccc1NC(=O)C(=O)CC(=O)CC(c1ccccc1)c1c(O)c2ccccc2oc1=O (stereo not drawn) | – | – | > 100 µM (inactive) | > 100 µM (inactive) | > 100 µM (inactive) | > 100 µM (inactive) | > 100 µM (inactive) | – | > 100 µM (inactive) | > 100 µM (inactive) | > 100 µM (inactive) | – | > 100 µM (inactive) | > 100 µM (inactive) | > 100 µM (inactive) | – | – | – | > 100 µM (inactive) |
| N#CC(C#N)=C1/C(=C/C=C/C=C/C=C/c2ccc(N3CCCCC3)s2)S(=O)(=O)c2ccccc21 | > 100 µM (inactive) | > 100 µM (inactive) | 93.1 µM (inactive) | > 100 µM (inactive) | 45.3 µM (inactive) | > 100 µM (inactive) | > 100 µM (inactive) | – | 36.4 µM (inactive) | > 100 µM (inactive) | > 100 µM (inactive) | > 100 µM (inactive) | > 100 µM (inactive) | > 100 µM (inactive) | > 100 µM (inactive) | > 100 µM (inactive) | – | 80.9 µM (inactive) | > 100 µM (inactive) |
| COC(=O)/C=C1\SC2(O\C1=N/c1ccccc1)C1CC3CC(C1)CC2C3 (stereo not drawn) | > 100 µM (inactive) | > 100 µM (inactive) | – | > 100 µM (inactive) | > 100 µM (inactive) | > 100 µM (inactive) | – | > 100 µM (inactive) | > 100 µM (inactive) | > 100 µM (inactive) | > 100 µM (inactive) | > 100 µM (inactive) | > 100 µM (inactive) | > 100 µM (inactive) | > 100 µM (inactive) | > 100 µM (inactive) | > 100 µM (inactive) | – | – |
| CCOC(=O)CC1c2ccc(O)cc2OC(=O)C1c1ccc(N)cc1 (stereo not drawn) | > 100 µM (inactive) | > 100 µM (inactive) | > 100 µM (inactive) | > 100 µM (inactive) | > 100 µM (inactive) | > 100 µM (inactive) | > 100 µM (inactive) | > 100 µM (inactive) | > 100 µM (inactive) | > 100 µM (inactive) | > 100 µM (inactive) | > 100 µM (inactive) | > 100 µM (inactive) | > 100 µM (inactive) | > 100 µM (inactive) | > 100 µM (inactive) | 66.1 µM (inactive) | – | > 100 µM (inactive) |
| CCc1nc(N)nc(N)c1-c1ccc(Cl)c([N+]#N)c1 | > 100 µM (inactive) | 61.7 µM (inactive) | 48.2 µM (inactive) | 36.5 µM (inactive) | > 100 µM (inactive) | 6.58 µM (inactive) | – | – | 0.564 µM (active) | > 100 µM (inactive) | 50.6 µM (inactive) | 46.5 µM (inactive) | > 100 µM (inactive) | 39.4 µM (inactive) | 58.3 µM (inactive) | > 100 µM (inactive) | 46.6 µM (inactive) | > 100 µM (inactive) | 65.5 µM (inactive) |
| O=C(/C=C/c1ccc2c(c1)OCO2)CC(=O)/C=C/c1ccc2c(c1)OCO2 | 77.4 µM (inactive) | 86.3 µM (inactive) | 49.8 µM (inactive) | > 100 µM (inactive) | 92.7 µM (inactive) | 23.5 µM (inactive) | > 100 µM (inactive) | 40 µM (inactive) | > 100 µM (inactive) | 64 µM (inactive) | > 100 µM (inactive) | 12.1 µM (inactive) | > 100 µM (inactive) | 84.3 µM (inactive) | > 100 µM (inactive) | – | 57.9 µM (inactive) | > 100 µM (inactive) | > 100 µM (inactive) |

From ChEMBL document CHEMBL1201862, “PubChem BioAssay data set” (2004)
